Patent publication US20240216381A1, “Px-cholorogenic Acid Comps” (PX ING, LLC, priority 2022, published 2024)

Assays:
[1] = test system: Pentobarbital Sodium induced sleep activity in experimental mice; assay: Pentobarbital Sodium induced sleep activity in mice; assay type: in vivo, Swiss Albino Mice; settings: 50 mg HED PX or 1-MX, 25 mg HED CA; for Duration of sleep / Onset time of sleep: test substance intraperitoneal 30 min before 40 mg/kg Pentobarbital sodium; for Duration of sleep, Improvement over P-Control / Onset time of sleep, Improvement over P-Control: vs Pathological Control
Experimental: The present example was conducted to evaluate the efficacy of test substances on Pentobarbital Sodium induced sleep activity in experimental mice.
The mice were randomized into nine groups containing eight mice in each group. […] The dose information can be found below in Table 2.
On the day of experiment, mice from different groups were treated with the control and test substances respectively. After thirty minutes, all groups of mice, except for the Normal Control group were, administered with 40 mg/kg body doses of Pentobarbital sodium to induce sleep. Administration of the test substances was done via intraperitoneal injection. The onset time of sleep was recorded for all the mice. After induction of sleep, mice were placed in the inverted position and when sedation was over, time point where the mice return to its normal posture was noted. The time interval between dosing and start of sleep was recorded as latency time.

[2] = test system: Scopolamine induced amnesia in rats; assay: Cognitive enhancing effect, Elevated Plus Maze, Scopolamine induced amnesia in rats; assay type: in vivo, Swiss Albino Wistar rats; settings: for rat escape latency, Elevated Plus Maze: oral daily for ten days, day 10, 30 min before 1 mg/kg Scopolamine i.p., 50 mg HED PX or 1-MX, 25 mg HED CA; for rat escape latency, Elevated Plus Maze, Improvement over P-Control: vs Pathological Control (Scopolamine)
Experimental: (§1) The example was to evaluate the effect of the test substances on behavioral activity/memory enhancing activity in experimental rats.
(§2) The rats were randomized into nine groups containing eight rats in each group. […] The rats were treated with test substances daily for ten consecutive days.
(§3) On the tenth day test, test substances were administered orally thirty minutes before a 1 mg/kg body weight Scopolamine injection to induce amnesia in rats to all groups except control group. Administration of the Scopolamine injections were done via intraperitoneal injection. This was followed by behavioral test using Elevated Plus Maze apparatus to measure the long-term memory enhancing activity.

brain biomarkers [3] = assay: Brain biomarkers in rats of the Morris Water Maze example; assay type: in vivo, Swiss Albino Wistar rats; parameters: Achetylcholine, Improvement over P-Control / Dopamine, Improvement over P-Control / Glutathione, Improvement over P-Control: concentration or dose not given beside the values; settings: for Achetylcholine, brain biomarker / Dopamine, brain biomarker / Glutathione, brain biomarker: oral ten days, Scopolamine 1 mg/kg; for Achetylcholine, Improvement over P-Control / Dopamine, Improvement over P-Control / Glutathione, Improvement over P-Control: vs Pathological Control (Scopolamine)
Experimental: as §2
(§4) On the tenth day test, test substances were administered orally thirty minutes before a 1 mg/kg body weight Scopolamine injection to induce amnesia in rats to all groups except control group. Administration of the Scopolamine injections were done via intraperitoneal injection. This was followed by behavioral test using Morris Water Maze apparatus to measure the long-term memory enhancing activity.
(§5) Several brain biomarkers were also measured in the rats.

[4] = test system: Scopolamine induced amnesia in rats; assay: Cognitive enhancing effect, Morris Water Maze, Scopolamine induced amnesia in rats; assay type: in vivo, Swiss Albino Wistar rats; settings: for rat escape latency, Morris Water Maze: oral daily for ten days, day 10, 30 min before 1 mg/kg Scopolamine i.p., 50 mg HED PX or 1-MX, 25 mg HED CA; for rat escape latency, Morris Water Maze, Improvement over P-Control: vs Pathological Control (Scopolamine)
Experimental: as §1, §2, §4

brain biomarkers [5] = assay: Brain biomarkers in rats of the Elevated Plus Maze example; assay type: in vivo, Swiss Albino Wistar rats; parameters: Achetylcholine, Improvement over P-Control / Dopamine, Improvement over P-Control / Glutathione, Improvement over P-Control / Catalse, Improvement over P-Control / BDNF, Improvement over P-Control / Serotonin, Improvement over P-Control / Cortisol, Improvement over P-Control: concentration or dose not given beside the values; settings: for Achetylcholine, brain biomarker / BDNF, brain biomarker / Catalse, brain biomarker / Cortisol, brain biomarker / Dopamine, brain biomarker / Glutathione, brain biomarker / Serotonin, brain biomarker: oral ten days, Scopolamine 1 mg/kg; for Achetylcholine, Improvement over P-Control / BDNF, Improvement over P-Control / Catalse, Improvement over P-Control / Cortisol, Improvement over P-Control / Dopamine, Improvement over P-Control / Glutathione, Improvement over P-Control / Serotonin, Improvement over P-Control: vs Pathological Control (Scopolamine)
Experimental: as §2, §3, §5

Row | Compound | Duration of sleep [1] [min] | Onset time of sleep [1] [min] | Duration of sleep, Improvement over P-Control [1] [%] | Onset time of sleep, Improvement over P-Control [1] [%] | rat escape latency, Elevated Plus Maze [2] [s] | rat escape latency, Elevated Plus Maze, Improvement over P-Control [2] [%] | Achetylcholine, brain biomarker (brain biomarkers [3]) [U/ml] | Dopamine, brain biomarker (brain biomarkers [3]) [ng/L] | Glutathione, brain biomarker (brain biomarkers [3]) [µg/mL] | Achetylcholine, Improvement over P-Control (brain biomarkers [3]) [%] | Dopamine, Improvement over P-Control (brain biomarkers [3]) [%] | Glutathione, Improvement over P-Control (brain biomarkers [3]) [%] | rat escape latency, Morris Water Maze [4] [s] | rat escape latency, Morris Water Maze, Improvement over P-Control [4] [%] | Achetylcholine, brain biomarker (brain biomarkers [5]) [U/ml] | BDNF, brain biomarker (brain biomarkers [5]) [pg/mL] | Catalse, brain biomarker (brain biomarkers [5]) [U/mL] | Cortisol, brain biomarker (brain biomarkers [5]) [ng/mL] | Dopamine, brain biomarker (brain biomarkers [5]) [ng/L] | Glutathione, brain biomarker (brain biomarkers [5]) [µg/mL] | other results
1 | O=C(/C=C/c1ccc(O)c(O)c1)O[C@@H]1C[C@](O)(C(=O)O)C[C@@H](O)[C@H]1O [Chlorogenic acid] | 74.88 | 40.5 | 169 | −20 | 30 | 68 | 33.03 | 14.74 | 16.85 | 63 | 43 | 41 | 28.54 | 72 | 33.17 | 18.05 | 161.91 | 68.51 | 15.58 | 19.89 | Serotonin, brain biomarker (brain biomarkers [5]): 38.43 ng/mL; Achetylcholine, Improvement over P-Control (brain biomarkers [5]): 54%; BDNF, Improvement over P-Control (brain biomarkers [5]): 37%; Catalse, Improvement over P-Control (brain biomarkers [5]): 34%; Cortisol, Improvement over P-Control (brain biomarkers [5]): −24%; Dopamine, Improvement over P-Control (brain biomarkers [5]): 34%; Glutathione, Improvement over P-Control (brain biomarkers [5]): 46%; Serotonin, Improvement over P-Control (brain biomarkers [5]): −19%
2 | Cn1c(=O)[nH]c2ncn(C)c2c1=O [Paraxanthine] | 66.13 | 41.5 | 137 | −18 | 36.66 | 38 | 34.16 | 14.21 | 17.47 | 69 | 38 | 46 | 30.46 | 61 | 32.04 | 17.72 | 159.83 | 73.99 | 15.06 | 19.57 | Serotonin, brain biomarker (brain biomarkers [5]): 38.03 ng/mL; Achetylcholine, Improvement over P-Control (brain biomarkers [5]): 49%; BDNF, Improvement over P-Control (brain biomarkers [5]): 34%; Catalse, Improvement over P-Control (brain biomarkers [5]): 32%; Cortisol, Improvement over P-Control (brain biomarkers [5]): −18%; Dopamine, Improvement over P-Control (brain biomarkers [5]): 30%; Glutathione, Improvement over P-Control (brain biomarkers [5]): 44%; Serotonin, Improvement over P-Control (brain biomarkers [5]): −20%
3 | Cn1c(=O)[nH]c2nc[nH]c2c1=O [1-Methylxanthine, 1-methylxanthine] | 57.75 | 42.25 | 107 | −16 | 33.89 | 49 | 30.87 | 13.66 | 16.06 | 53 | 33 | 34 | 32.43 | 51 | 28.97 | 17.29 | 155.96 | 79.4 | 14.51 | 17.94 | Serotonin, brain biomarker (brain biomarkers [5]): 41.63 ng/mL; Achetylcholine, Improvement over P-Control (brain biomarkers [5]): 34%; BDNF, Improvement over P-Control (brain biomarkers [5]): 31%; Catalse, Improvement over P-Control (brain biomarkers [5]): 29%; Cortisol, Improvement over P-Control (brain biomarkers [5]): −12%; Dopamine, Improvement over P-Control (brain biomarkers [5]): 25%; Glutathione, Improvement over P-Control (brain biomarkers [5]): 32%; Serotonin, Improvement over P-Control (brain biomarkers [5]): −12%
